Read-outs that look alike come from different tables or passages of the source.
Target: hQC (Homo sapiens, UniProt Q16769)
Experiment: Fluorometric assay of glutaminyl cyclase (QC) inhibition, H-Gln-βNA or H-Gln-AMC substrate
Format: biochemical
Outline: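 Fluorometric coupled assays at 30° C in Tris/HCl pH 8.0 with EDTA and pyroglutamyl aminopeptidase used either 0.2 mM H-Gln-βNA (320/410 nm) or H-Gln-AMC (380/460 nm), started by QC. Screening used 4 mM inhibitor at substrate 1 KM. Ki came from fitting progress curves to competitive inhibition.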

hQC, sequence (Q16769 29-361): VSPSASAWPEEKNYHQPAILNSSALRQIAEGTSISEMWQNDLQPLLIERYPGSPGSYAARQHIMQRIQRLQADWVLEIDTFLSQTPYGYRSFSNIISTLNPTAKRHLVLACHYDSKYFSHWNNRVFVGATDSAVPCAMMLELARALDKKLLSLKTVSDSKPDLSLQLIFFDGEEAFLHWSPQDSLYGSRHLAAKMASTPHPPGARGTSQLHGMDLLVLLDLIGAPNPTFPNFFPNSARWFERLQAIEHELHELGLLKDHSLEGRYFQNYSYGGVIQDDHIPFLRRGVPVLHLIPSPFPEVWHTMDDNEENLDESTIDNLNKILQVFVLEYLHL

Compound | IC50 (read-out: IC50) | IC50 (compound from preparative synthesis, purified by chromatography, fluorescent assay, read-out: IC50 hQC)
S=C1N/C(=N\C(Cc2ccccc2)c2ccccc2)C(c2cccc(Br)c2)N1c1ccc2[nH]cnc2c1 (stereo not drawn) [Compound 164, 1-(1H-Benzoimidazol-5-yl)-5-(3-bromo-phenyl)-4-1,2-diphenyl-ethylimino-imidazolidine-2-thione] | 9400 nM | 
CC1=CC(C)C(C2/C(=N/C(C)C(C)(C)C)NC(=S)N2c2ccc3nc[nH]c3c2)CC1 (stereo not drawn) [Compound 165, 1-(3H-Benzoimidazol-5-yl)-5-(2,4-dimethyl-cyclohex-3-enyl)-4-1,2,2-trimethyl-propylimino-imidazolidine-2-thione] | 7600 nM | 
O=C1CCCN1CCC/N=C1/NC(=O)N(c2ccc3[nH]cnc3c2)C1c1cc2ccccc2s1 (stereo not drawn) [Compound 166, 5-Benzobthiophen-2-yl-1-(1H-benzoimidazol-5-yl)-4-3-(2-oxo-pyrrolidin-1-yl)-propylimino-imidazolidin-2-one] | 400 nM | 
C/N=C1/NC(=O)N(c2ccc3[nH]cnc3c2)C1c1ccc(C)cc1 (stereo not drawn) [Compound 167, 1-(1H-Benzoimidazol-5-yl)-4-methylimino-5-p-tolyl-imidazolidin-2-one] | 400 nM | 
O=C1CCCN1CCC/N=C1/NC(=O)N(c2ccc3[nH]cnc3c2)C1c1ccc2c(c1)OCO2 (stereo not drawn) [Compound 168, 5-Benzo[1,3]dioxol-5-yl-1-(1H-benzoimidazol-5-yl)-4-(3-(2-oxo-pyrrolidin-1-yl)-propylimino)-imidazolidin-2-one] | 4 nM | 27.4 nM
O=C1N/C(=N\C(Cc2ccccc2)c2ccccc2)C(C2=CCCCC2)N1c1ccc2[nH]cnc2c1 (stereo not drawn) [Compound 169, 1-(1H-Benzoimidazol-5-yl)-5-cyclohex-1-enyl-4-1,2-diphenyl-ethylimino-imidazolidin-2-one] | 3100 nM | 
Cc1ccc(C2/C(=N\Cc3ccc4[nH]ccc4c3)NC(=O)N2c2ccc3[nH]cnc3c2)cc1 (stereo not drawn) [Compound 170, 1-(1H-Benzoimidazol-5-yl)-4-1H-indol-5-ylmethylimino-5-p-tolyl-imidazolidin-2-one] | 4 nM | 
O=C1N/C(=N\C2CCCC2)C(c2ccc3ccccc3c2)N1c1ccc2[nH]cnc2c1 (stereo not drawn) [Compound 171, 1-(1H-Benzoimidazol-5-yl)-4-cyclopentylimino-5-naphthalen-2-yl-imidazolidin-2-one] | 4 nM | 
O=C1N/C(=N/CCCc2ccccc2)C(c2cc3ccccc3s2)N1c1ccc2[nH]cnc2c1 (stereo not drawn) [Compound 172, 5-Benzobthiophen-2-yl-1-(1H-Benzoimidazol-5-yl)-4-3-phenyl-propylimino-imidazolidin-2-one] | 1300 nM | 
O=C1N/C(=N/Cn2nnc3ccccc32)C(c2ccc3[nH]ccc3c2)N1c1ccc2[nH]cnc2c1 (stereo not drawn) [Compound 173, 1-(1H-Benzoimidazol-5-yl)-4-benzotriazol-1-ylmethylimino-5-(1H-indol-5-yl)-imidazolidin-2-one] | 4 nM | 
CC(C)/N=C1\NC(=O)N(c2ccc3[nH]cnc3c2)C1c1cccc(C#N)c1 (stereo not drawn) [Compound 174, 3-{3-(1H-Benzoimidazol-5-yl)-5-isopropylimino-2-oxo-imidazolidin-4-yl}-benzonitrile] | 400 nM | 
O=C1CCCN1CC/N=C1\NC(=S)N(c2ccc3[nH]cnc3c2)C1c1cccc(Br)c1 (stereo not drawn) [Compound 175, 1-(2-(1-(1H-benzo[d]imidazol-5-yl)-5-(3-bromophenyl)-2-thioxoimidazolidin-4-ylideneamino)ethyl)pyrrolidin-2-one] | 4900 nM | 
S=C1N/C(=N/Cn2nnc3ccccc32)C(c2ccc3c(c2)OCO3)N1c1ccc2[nH]cnc2c1 (stereo not drawn) [Compound 176, 5-Benzo1,3dioxol-5-yl-1-(1H-benzoimidazol-5-yl)-4-benzotriazol-1-ylmethylimino-imidazolidine-2-thione] | 1300 nM | 
O=C1N/C(=N\Cc2ccccc2)C(c2cccc(Br)c2)N1c1ccc2nc[nH]c2c1 (stereo not drawn) [Compound 177, 1-(1H-benzo[d]imidazol-6-yl)-4-(benzylimino)-5-(3-bromophenyl)imidazolidin-2-one] | 4 nM | 
CC(C)C1/C(=N\C(C)(C)CC(C)(C)C)NC(=S)N1c1ccc2[nH]cnc2c1 (stereo not drawn) [Compound 178, 1-(1H-Benzoimidazol-5-yl)-5-isopropyl-4-1,1,3,3-tetramethyl-butylimino-imidazolidine-2-thione] | 6700 nM | 
O=C(CN=C1NC(=O)N(c2ccc3nc[nH]c3c2)C1c1cc(Br)cc(Br)c1)N1CCSCC1 (stereo not drawn) [Compound 179, 1-(3H-Benzoimidazol-5-yl)-5-(3,5-dibromo-phenyl)-4-2-oxo-2-thiomorpholin-4-yl-ethylimino-imidazolidin-2-one] | 4000 nM | 
CN(C)c1ccc(C2/C(=N\Cc3cccnc3)NC(=O)N2c2ccc3[nH]cnc3c2)cc1 (stereo not drawn) [Compound 180, 1-(1H-Benzoimidazol-5-yl)-5-(4-dimethylamino-phenyl)-4-pyridin-3-ylmethylimino-imidazolidin-2-one] | 400 nM | 
CSc1ccc(C2C(=NCn3nnc4ccccc43)NC(=O)N2c2ccc3[nH]cnc3c2)cc1 (stereo not drawn) [Compound 181, 1-(1H-Benzoimidazol-5-yl)-4-benzotriazol-1-ylmethylimino-5-(4-methylsulfanyl-phenyl)-imidazolidin-2-one] | 1300 nM | 
O=C(C/N=C1\NC(=S)N(c2ccc3nc[nH]c3c2)C1c1cc(Br)cs1)N1CCc2ccccc2C1 (stereo not drawn) [Compound 182, 2-(1-(1H-benzo[d]imidazol-6-yl)-5-(4-bromothiophen-2-yl)-2-thioxoimidazolidin-4-ylideneamino)-1-(3,4-dihydroisoquinolin-2(1H)-yl)ethanone] | 1300 nM | 
O=C1N/C(=N\C2CCCCC2)C(c2cc(Br)cs2)N1c1ccc2[nH]cnc2c1 (stereo not drawn) [Compound 184] | 1300 nM | 
O=C(CN=C1NC(=S)N(c2ccc3nc[nH]c3c2)C1c1c(F)ccc(Cl)c1F)N1CCCCC1 (stereo not drawn) [Compound 185, 2-(1-(1H-benzo[d]imidazol-6-yl)-5-(3-chloro-2,6-difluorophenyl)-2-thioxoimidazolidin-4-ylideneamino)-1-(piperidin-1-yl)ethanone] | 400 nM | 
O=C1N/C(=N\C2CCCC2)C(c2cc(Br)cc(Br)c2)N1c1ccc2[nH]cnc2c1 (stereo not drawn) [Compound 186, 1-(1H-Benzoimidazol-5-yl)-4-cyclopentylimino-5-(3,5-dibromo-phenyl)-imidazolidin-2-one] | 4 nM | 
O=C(CN=C1NC(=S)N(c2ccc3nc[nH]c3c2)C1c1cc(Br)cs1)N1CCCCC1 (stereo not drawn) [Compound 187, 2-(1-(1H-benzo[d]imidazol-6-yl)-5-(4-bromothiophen-2-yl)-2-thioxoimidazolidin-4-ylideneamino)-1-(piperidin-1-yl)ethanone] | 400 nM | 
Fc1ccc(Cl)c(F)c1C1/C(=N/c2c(Cl)cccc2Cl)NC(=S)N1c1ccc2nc[nH]c2c1 (stereo not drawn) [Compound 188, 1-(3H-Benzoimidazol-5-yl)-5-(3-chloro-2,6-difluoro-phenyl)-4-2,6-dichloro-phenylimino-imidazolidine-2-thione] | 6700 nM | 
Cc1cccc(C2/C(=N\Cn3nnc4ccccc43)NC(=O)N2c2ccc3nc[nH]c3c2)n1 (stereo not drawn) [Compound 189, 1-(3H-Benzoimidazol-5-yl)-4-benzotriazol-1-ylmethylimino-5-(6-methyl-pyridin-2-yl)-imidazolidin-2-one] | 4000 nM | 
O=C1NC(=NC2CCCc3ccccc32)C(c2ccccc2Cl)N1c1ccc2[nH]cnc2c1 (stereo not drawn) [Compound 190, 1-(1H-Benzoimidazol-5-yl)-5-(2-chloro-phenyl)-4-1,2,3,4-tetrahydro-naphthalen-1-ylimino-imidazolidin-2-one] | 400 nM | 
